Measured values as given in ChEMBL document CHEMBL1201862, “PubChem BioAssay data set” (2004).
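Cells were grown in 96-well plates and exposed to each compound for 48 hours at five concentrations; endpoints were interpolated linearly between bracketing concentrations, or set to the highest concentration if not reached. At the GI50, growth is halved.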 Active and inactive are the calls of the source. Rule as the data show it: active = GI50 up to about 1.1 µM and inactive = higher.

Key:
Assay in all cases: DTP human tumour cell line panel, 48 h
786-0 = test system: 786-0
A498 = test system: A498
ACHN = test system: ACHN
CAKI-1 = test system: CAKI-1
DU-145 = test system: DU-145
HCT-116 = test system: HCT-116
LOX IMVI = test system: LOX IMVI
MDA-N = test system: MDA-N
NCI-H226 = test system: NCI-H226
NCI/ADR-RES = test system: NCI/ADR-RES
OVCAR-3 = test system: OVCAR-3
OVCAR-4 = test system: OVCAR-4
RXF 393 = test system: RXF 393
SF-295 = test system: SF-295
SK-MEL-2 = test system: SK-MEL-2
SK-MEL-5 = test system: SK-MEL-5
SNB-75 = test system: SNB-75
SR = test system: SR
TK-10 = test system: TK-10
UACC-257 = test system: UACC-257

Measured: GI50

COC(=O)c1cc2c(cc1CC(Cc1ccc3c(c1)CCC3)C(=O)OC)CCC2 (stereo not given)
inactive: 786-0 51.4 µM | A498 > 100 µM | ACHN 45.7 µM | CAKI-1 > 100 µM | DU-145 83.8 µM | HCT-116 40.7 µM | LOX IMVI 40.6 µM | MDA-N 38 µM | NCI-H226 7.24 µM | NCI/ADR-RES 57.5 µM | OVCAR-3 > 100 µM | OVCAR-4 24 µM | RXF 393 18.1 µM | SF-295 84.5 µM | SK-MEL-2 44.1 µM | SK-MEL-5 17.6 µM | SNB-75 22.9 µM | SR 11 µM | TK-10 88.5 µM | UACC-257 13.7 µM

O=C(O)c1cnc2c(ccc3ncc(C(=O)O)c(O)c32)c1O
inactive: 786-0 > 100 µM | A498 > 100 µM | ACHN > 100 µM | CAKI-1 > 100 µM | DU-145 > 100 µM | HCT-116 > 100 µM | LOX IMVI > 100 µM | MDA-N > 100 µM | NCI-H226 > 100 µM | NCI/ADR-RES > 100 µM | OVCAR-3 > 100 µM | OVCAR-4 > 100 µM | RXF 393 > 100 µM | SF-295 > 100 µM | SK-MEL-2 > 100 µM | SK-MEL-5 > 100 µM | SNB-75 34.8 µM | SR > 100 µM | TK-10 > 100 µM | UACC-257 > 100 µM

COC(=O)N/N=C(/CC1(O)C(=O)Nc2ccc([N+](=O)[O-])cc21)c1ccccc1 (stereo not given)
inactive: 786-0 25.4 µM | A498 14 µM | ACHN 33.3 µM | CAKI-1 75.7 µM | DU-145 > 100 µM | HCT-116 24.1 µM | LOX IMVI 18.9 µM | MDA-N 39.4 µM | NCI-H226 40.9 µM | NCI/ADR-RES 21.8 µM | OVCAR-3 44.3 µM | OVCAR-4 47.3 µM | RXF 393 22 µM | SF-295 17.5 µM | SK-MEL-2 31.2 µM | SK-MEL-5 23.9 µM | SNB-75 23.9 µM | SR 29.9 µM | TK-10 24.9 µM | UACC-257 42.4 µM

CC(=O)O[C@@H]1[C@H]2[C@@H](OC(=O)c3ccccc3)[C@@H](C)C[C@]2(O)[C@H](OC(C)=O)[C@@]2(C)[C@@H]3C[C@@](C)(OC(C)=O)C[C@@H](OC(C)=O)[C@@]3(OC(C)=O)C[C@@]12C
inactive: 786-0 > 10 µM | A498 > 10 µM | ACHN > 10 µM | CAKI-1 > 10 µM | DU-145 > 10 µM | HCT-116 > 10 µM | LOX IMVI > 10 µM | MDA-N > 10 µM | NCI-H226 > 10 µM | NCI/ADR-RES > 10 µM | OVCAR-3 > 10 µM | OVCAR-4 > 10 µM | RXF 393 > 10 µM | SF-295 > 10 µM | SK-MEL-2 > 10 µM | SK-MEL-5 > 10 µM | SNB-75 > 10 µM | SR > 10 µM | TK-10 > 10 µM | UACC-257 > 10 µM

Clc1ccc(C(SCc2ccccc2)SCc2ccccc2)cc1
inactive: 786-0 > 10 µM | A498 > 10 µM | ACHN > 10 µM | CAKI-1 > 10 µM | DU-145 > 10 µM | HCT-116 > 10 µM | LOX IMVI > 10 µM | MDA-N > 10 µM | NCI-H226 > 10 µM | NCI/ADR-RES > 10 µM | OVCAR-3 > 10 µM | OVCAR-4 > 10 µM | RXF 393 > 10 µM | SF-295 > 10 µM | SK-MEL-2 > 10 µM | SK-MEL-5 > 10 µM | SNB-75 > 10 µM | SR > 10 µM | TK-10 > 10 µM | UACC-257 > 10 µM
